Measurements reported in US7332476B2, “Pyridyl substituted ketolide antibiotics” (Novartis AG, priority 2003, dated 2008).
Converted amounts (≈) assume the structure as drawn.

Tests used:
[1] = In vivo pharmacokinetic study in rats, whole lung (IV and PO); conditions: male, Sprague-Dawley, 5 mg/kg, rat; for half-life: IV, whole lung, read-out: t1/2, IV Lung (converted); for Kp: lung/plasma, iv, read-out: L/P ratio, IV
Procedure: Animal Models. A total of 54 male Sprague-Dawley rats, weighing 200 grams in average, were evaluated for pharmacokinetic studies of representative pyridyl substituted ketolides. Rats were under overnight food restriction and received water ad libitum. Rats were acclimated for approximately 5 days before antibiotic administration.
Antibiotic Administration. Rats were given bolus administration through (IV) and oral (PO) routes. Representative pyridyl substituted ketolides and telithromycin, for comparison, were diluted in 0.85% saline to a concentration of 15.0 mg/ml, and the resulting pH was adjusted using 1N acetic acid until the compound was in solution. Approximately 200 microliters of the compound solution was administered to the rats. The target dose for IV and PO administration was 5 mg/kg and 15 mg/kg, respectively.
Sample Collection. Plasma and whole lung samples were collected from the rats. Plasma samples were obtained from blood samples by centrifugation at 3000 RPM for 10 min. Heparin was added in the plasma as an anticoagulant. Whole lung samples were homogenized in deionized water. Samples were stored at −80° C. A total of 9 time points were collected in triplicate at 0.083, 0.25, 0.5, 1, 2, 4, 6, 8, and 24 hrs. Ketolide concentrations in plasma and lung were determined by well-established non-GLP LC-MS-MS methods. PK parameters were estimated from the raw bioanalytical data using WinNolin software (Version 4.0, Pharsight Corporation, CA). […] All representative compounds were compared to telithromycin.

[2] = system: Enterococcus faecalis Enfa_29212; test: MIC, broth microdilution (NCCLS); format: cell-based; conditions: in µg/mL (unit assumed); for MIC: Table 10, Strain ID E (Table 8): Enterococcus faecalis Enfa_29212
Method in brief: (§1)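 NCCLS broth microdilution with 2-fold serial drug dilutions (methanol stocks diluted in water); inoculum 3×10^5–7×10^5 CFU/ml in CAMHB, with 2-5% lysed horse blood for S. pneumoniae. Incubation 18-24 h at 35° C., ambient air, except S. pneumoniae (5-10% CO2). MIC is lowest concentration preventing visible growth.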

[3] = system: Staphylococcus aureus Stau_29213; test: MIC, broth microdilution (NCCLS); format: cell-based; conditions: in µg/mL (unit assumed); for MIC: Table 10, Strain ID A (Table 8): Staphylococcus aureus Stau_29213
Method in brief: as §1

[4] = system: Staphylococcus epidermidis Step_14990; test: MIC, broth microdilution (NCCLS); format: cell-based; conditions: in µg/mL (unit assumed); for MIC: Table 10, Strain ID C (Table 8): Staphylococcus epidermidis Step_14990
Method in brief: as §1

[5] = system: Streptococcus pneumoniae Stpn_Erm S 4297; test: MIC, broth microdilution (NCCLS); format: cell-based; conditions: for MIC: Table 10, Strain ID R (Table 8): Streptococcus pneumoniae Stpn_Erm S 4297
Method in brief: as §1

[6] = system: Streptococcus pneumoniae Stpn_280-962; test: MIC, broth microdilution (NCCLS); format: cell-based; parameters: MIC, strain ID O: unit not given beside the values; conditions: for MIC: Table 10, Strain ID O (Table 8): Streptococcus pneumoniae Stpn_280-962
Method in brief: as §1

[7] = system: Staphylococcus aureus Stau_33591; test: MIC, broth microdilution (NCCLS); format: cell-based; conditions: unit assumed; for MIC: Table 10, Strain ID B (Table 8): Staphylococcus aureus Stau_33591
Method in brief: (§2)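 NCCLS broth microdilution; CAMHB / HTM (H. influenzae); inoc 3×10^5–7×10^5 CFU/ml; 35° C, 18-24 h, H. influenzae 5-10% CO2; MIC = no visible growth.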

[8] = system: Haemophilus influenzae Hain_2762; test: MIC, broth microdilution (NCCLS); format: cell-based; conditions: in µg/mL (unit assumed); for MIC: Table 10, Strain ID L (Table 8): Haemophilus influenzae Hain_2762
Method in brief: as §2

[9] = system: Haemophilus influenzae Hain_953460299-3; test: MIC, broth microdilution (NCCLS); format: cell-based; conditions: in µg/mL (unit assumed); for MIC: Table 10, Strain ID K (Table 8): Haemophilus influenzae Hain_953460299-3
Method in brief: as §2

[10] = system: Enterococcus faecalis Enfa_bc 11148-2; test: MIC, broth microdilution (NCCLS); format: cell-based; conditions: in µg/mL (unit assumed); for MIC: Table 10, Strain ID F (Table 8): Enterococcus faecalis Enfa_bc 11148-2
Method in brief: as §2

[11] = system: Haemophilus influenzae Hain_960820544-3; test: MIC, broth microdilution (NCCLS); format: cell-based; conditions: in µg/mL (unit assumed); for MIC: Table 10, Strain ID J (Table 8): Haemophilus influenzae Hain_960820544-3
Method in brief: as §2

[12] = system: Haemophilus influenzae Hain_960730503-3; test: MIC, broth microdilution (NCCLS); format: cell-based; conditions: in µg/mL (unit assumed); for MIC: Table 10, Strain ID I (Table 8): Haemophilus influenzae Hain_960730503-3
Method in brief: as §2

[13] = system: Streptococcus pneumoniae Stpn_Mef 5654; test: MIC, broth microdilution (NCCLS); format: cell-based; parameters: MIC, strain ID R: unit not given beside the values; conditions: for MIC: Table 10, Strain ID P (Table 8): Streptococcus pneumoniae Stpn_Mef 5654, in µg/mL (unit assumed)
Method in brief: as §1

CC[C@H]1OC(=O)[C@H](C)C(=O)[C@H](C)[C@@H](O[C@@H]2O[C@H](C)C[C@H](N(C)C)[C@H]2O)[C@](C)(OC)C[C@@H](C)C(=O)[C@H](C)[C@H]2N(CCCCn3cnc(-c4cccnc4)c3)C(=O)O[C@]12C [Telithromycin, telithromycin, reference compound]
half-life [1]: 1.3 h
Kp [1]: 16
MIC [2]: 0.1-0.2
MIC, strain ID E ([2]; strain ID E, broth microdilution): 0.1-0.2
MIC [3]: 0.1-0.2
MIC, strain ID A ([3]; strain ID A, broth microdilution): 0.1-0.2
MIC [4]: 0.1-0.2
MIC, strain ID C ([4]; strain ID C, broth microdilution): 0.1-0.2
MIC [5]: =0.1
MIC, strain ID Q ([5]; strain ID Q, broth microdilution, in µg/mL (unit assumed)): 0.1-0.2
MIC [6]: =0.05
MIC, strain ID O ([6]; strain ID O, broth microdilution): =0.05
MIC [7]: > 50 µg/mL
MIC, strain ID B ([7]; strain ID B, broth microdilution): > 50 µg/mL
MIC [8]: 0.78-1.56
MIC, strain ID L ([8]; strain ID L, broth microdilution): 0.78-1.56
MIC [9]: 3.13-6.25
MIC, strain ID K ([9]; strain ID K, broth microdilution): 3.13-6.25
MIC [10]: 0.4-0.78
MIC, strain ID F ([10]; strain ID F, broth microdilution): 0.4-0.78
MIC [11]: 3.13-6.25
MIC, strain ID J ([11]; strain ID J, broth microdilution): 3.13-6.25
MIC [12]: 3.13-6.25
MIC, strain ID I ([12]; strain ID I, broth microdilution): 3.13-6.25
MIC [13]: 0.2-0.78
MIC, strain ID R ([13]; strain ID R, broth microdilution): =0.1

CC[C@H]1OC(=O)[C@@](C)(F)C(=O)[C@H](C)[C@@H](OC2O[C@H](C)C[C@H](N(C)C)[C@H]2O)[C@@](C)(OC)C[C@@H](C)C(=O)[C@H](C)[C@H]2N(CCCCn3cnc(-c4ccc(C)nc4)c3)C(=O)O[C@]12CC (some centres unmarked) [XIV]
half-life [1]: 3.6 h
Kp [1]: 83
MIC [2]: 0.2
MIC [3]: 0.2
MIC [4]: 0.2
MIC ([5]; unit assumed): 0.1 µg/mL (≈ 0.117 µM)
MIC [6]: =0.05
MIC [7]: > 50 µg/mL
MIC [8]: 1.56
MIC [9]: 6.25
MIC [10]: 1.56
MIC [11]: 6.25
MIC [12]: 6.25
MIC [13]: 0.78

C=C[C@]12OC(=O)N(CCCCn3cnc(-c4ccc(OC)nc4)c3)[C@@H]1[C@@H](C)C(=O)[C@H](C)C[C@](C)(OC)[C@H](OC1O[C@H](C)C[C@H](N(C)C)[C@H]1O)[C@@H](C)C(=O)[C@@H](C)C(=O)O[C@@H]2CC (some centres unmarked) [XVIII]
half-life [1]: 3.1 h
Kp [1]: 110
MIC [2]: 0.1
MIC [3]: 0.2
MIC [4]: 0.2
MIC ([5]; unit assumed): 0.1 µg/mL (≈ 0.117 µM)
MIC [6]: =0.05
MIC [7]: > 50 µg/mL
MIC [8]: 1.56
MIC [9]: 6.25
MIC [10]: 0.78
MIC [11]: 6.25
MIC [12]: 6.25
MIC [13]: 0.78

C=C[C@]12OC(=O)N(CCCCn3cnc(-c4ccc(C)nc4)c3)[C@@H]1[C@@H](C)C(=O)[C@H](C)C[C@](C)(OC)[C@H](OC1O[C@H](C)C[C@H](N(C)C)[C@H]1O)[C@@H](C)C(=O)[C@@H](C)C(=O)O[C@@H]2CC (some centres unmarked) [XVI]
half-life [1]: 3.4 h
Kp [1]: 80
MIC [2]: 0.1
MIC [3]: 0.2
MIC [4]: 0.2
MIC [5]: =0.05
MIC [6]: =0.05
MIC [7]: > 50 µg/mL
MIC [8]: 1.56
MIC [9]: 6.25
MIC [10]: 0.78
MIC [11]: 6.25
MIC [12]: 6.25
MIC [13]: 0.78
